Test results reported in ChEMBL document CHEMBL1201861, “Genomics of Drug Sensitity in Cancer screening data, Wellcome Trust Sanger Institute”.

Experiments:
Experiment in all cases: cells
[1] = system: HTC-C3; type: functional, cell-based; conditions: Homo sapiens;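 also: inhibition of cell growth, read out with a cell viability assay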
Description: SANGER: Inhibition of human HTC-C3 cell growth in a cell viability assay.

[2] = system: RPMI-2650; type: functional, cell-based; conditions: Homo sapiens
Description: SANGER: Inhibition of human RPMI-2650 cell growth in a cell viability assay.

[3] = system: SiHa; type: functional, cell-based; conditions: Homo sapiens;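 also: Viability-based readout of growth inhibition in SiHa cells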
Description: SANGER: Inhibition of human SiHa cell growth in a cell viability assay.

[4] = system: 23132-87; type: functional, cell-based; conditions: Homo sapiens
Description: SANGER: Inhibition of human 23132-87 cell growth in a cell viability assay.

[5] = system: A-375; type: functional, cell-based; conditions: Homo sapiens;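 also: growth inhibition of A375 cells, read out with a cell viability assay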
Description: SANGER: Inhibition of human A375 cell growth in a cell viability assay.

[6] = system: NY; type: functional, cell-based; conditions: Homo sapiens
Description: SANGER: Inhibition of human NY cell growth in a cell viability assay.

[7] = system: 769-P; type: functional, cell-based; conditions: Homo sapiens
Description: SANGER: Inhibition of human 769-P cell growth in a cell viability assay.

[8] = system: HO-1-N-1; type: functional, cell-based; conditions: Homo sapiens;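 also: growth inhibition of human HO-1-N-1 cells, read out with a cell viability assay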
Description: SANGER: Inhibition of human HO-1-N-1 cell growth in a cell viability assay.

[9] = system: Calu-3; type: functional, cell-based; conditions: Homo sapiens;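 also: growth inhibition of human Calu-3 cells, determined with a cell viability assay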
Description: SANGER: Inhibition of human Calu-3 cell growth in a cell viability assay.

[10] = system: UO-31; type: functional, cell-based; conditions: Homo sapiens;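 also: cell viability assay measuring inhibition of cell growth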
Description: SANGER: Inhibition of human U031 cell growth in a cell viability assay.

[11] = system: SK-MEL-30; type: functional, cell-based; conditions: Homo sapiens;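 also: growth inhibition of SK-MEL-30 cells, determined with a cell viability assay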
Description: SANGER: Inhibition of human SK-MEL-30 cell growth in a cell viability assay.

[12] = system: HT-1376; type: functional, cell-based; conditions: Homo sapiens
Description: SANGER: Inhibition of human HT-1376 cell growth in a cell viability assay.

[13] = system: ESS-1; type: functional, cell-based; conditions: Homo sapiens;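 also: growth inhibition of human ESS-1 cells, read out by a cell viability assay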
Description: SANGER: Inhibition of human ESS-1 cell growth in a cell viability assay.

[14] = system: SW1990; type: functional, cell-based; conditions: Homo sapiens;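 also: cell growth inhibition determined with a viability assay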
Description: SANGER: Inhibition of human SW1990 cell growth in a cell viability assay.

[15] = system: SW626; type: functional, cell-based; conditions: Homo sapiens;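 also: growth inhibition of SW626 cells, measured with a cell viability assay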
Description: SANGER: Inhibition of human SW626 cell growth in a cell viability assay.

[16] = system: SW756; type: functional, cell-based; conditions: Homo sapiens;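 also: growth inhibition of human SW756 cells, read out with a cell viability assay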
Description: SANGER: Inhibition of human SW756 cell growth in a cell viability assay.

[17] = system: OVCAR-5; type: functional, cell-based; conditions: Homo sapiens;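 also: growth inhibition of human OVCAR-5 cells, read out with a cell viability assay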
Description: SANGER: Inhibition of human OVCAR-5 cell growth in a cell viability assay.

[18] = system: VMRC-RCZ; type: functional, cell-based; conditions: Homo sapiens;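 also: growth inhibition measured with a cell viability assay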
Description: SANGER: Inhibition of human VMRC-RCZ cell growth in a cell viability assay.

[19] = system: NCI-H2228; type: functional, cell-based; conditions: Homo sapiens;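 also: growth inhibition of human NCI-H2228 cells, read out by a cell viability assay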
Description: SANGER: Inhibition of human NCI-H2228 cell growth in a cell viability assay.

[20] = system: NCI-H596; type: functional, cell-based; conditions: Homo sapiens;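 also: growth inhibition of NCI-H596 cells, read out with a cell viability assay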
Description: SANGER: Inhibition of human NCI-H596 cell growth in a cell viability assay.

[21] = system: BFTC-905; type: functional, cell-based; conditions: Homo sapiens
Description: SANGER: Inhibition of human BFTC-905 cell growth in a cell viability assay.

[22] = system: 786-0; type: functional, cell-based; conditions: Homo sapiens
Description: SANGER: Inhibition of human 786-0 cell growth in a cell viability assay.

[23] = system: RD; type: functional, cell-based; conditions: Homo sapiens
Description: SANGER: Inhibition of human RD cell growth in a cell viability assay.

[24] = system: 647-V; type: functional, cell-based; conditions: Homo sapiens;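 also: growth inhibition of 647-V cells, read out with a cell viability assay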
Description: SANGER: Inhibition of human 647-V cell growth in a cell viability assay.

[25] = system: LK-2; type: functional, cell-based; conditions: Homo sapiens;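 also: growth inhibition of LK-2 cells, read out with a viability assay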
Description: SANGER: Inhibition of human LK-2 cell growth in a cell viability assay.

[26] = system: HOS; type: functional, cell-based; conditions: Homo sapiens;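 also: growth inhibition of human HOS cells, read out with a cell viability assay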
Description: SANGER: Inhibition of human HOS cell growth in a cell viability assay.

[27] = system: HN; type: functional, cell-based; conditions: Homo sapiens
Description: SANGER: Inhibition of human HN cell growth in a cell viability assay.

[28] = system: RERF-LC-MS; type: functional, cell-based; conditions: Homo sapiens;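 also: growth inhibition of human RERF-LC-MS cells, read out by a cell viability assay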
Description: SANGER: Inhibition of human RERF-LC-MS cell growth in a cell viability assay.

[29] = system: GMS-10; type: functional, cell-based; conditions: Homo sapiens;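 also: growth inhibition of GMS-10 cells, read out as cell viability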
Description: SANGER: Inhibition of human GMS-10 cell growth in a cell viability assay.

[30] = system: CAL-27; type: functional, cell-based; conditions: Homo sapiens;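 also: Viability-based readout, IC50 reflecting inhibition of CAL-27 cell growth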
Description: SANGER: Inhibition of human CAL-27 cell growth in a cell viability assay.

[31] = system: BHY; type: functional, cell-based; conditions: Homo sapiens;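 also: cell growth inhibition read out by a viability assay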
Description: SANGER: Inhibition of human BHY cell growth in a cell viability assay.

[32] = system: 8505C; type: functional, cell-based; conditions: Homo sapiens
Description: SANGER: Inhibition of human 8505C cell growth in a cell viability assay.

[33] = system: NCI-H2170; type: functional, cell-based; conditions: Homo sapiens;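 also: cell viability assay measuring growth inhibition of human NCI-H2170 cancer cells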
Description: SANGER: Inhibition of human NCI-H2170 cell growth in a cell viability assay.

[34] = system: SK-HEP1; type: functional, cell-based, SK-HEP-1; conditions: Homo sapiens;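 also: cell viability readout used to quantify reduction in proliferation of human SK-HEP-1 cells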
Description: SANGER: Inhibition of human SK-HEP-1 cell growth in a cell viability assay.

[35] = system: NCI-H2030; type: functional, cell-based; conditions: Homo sapiens;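 also: growth inhibition of human NCI-H2030 cells, read out by a cell viability assay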
Description: SANGER: Inhibition of human NCI-H2030 cell growth in a cell viability assay.

[36] = system: CAL-54; type: functional, cell-based; conditions: Homo sapiens;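 also: growth inhibition of CAL-54 cells, read out by a viability measurement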
Description: SANGER: Inhibition of human CAL-54 cell growth in a cell viability assay.

[37] = system: A 172; type: functional, cell-based; conditions: Homo sapiens;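 also: growth inhibition of A172 cells, measured with a cell viability readout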
Description: SANGER: Inhibition of human A172 cell growth in a cell viability assay.

[38] = system: NB12; type: functional, cell-based; conditions: Homo sapiens;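 also: growth inhibition of human NB12 cells, read out by a cell viability assay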
Description: SANGER: Inhibition of human NB12 cell growth in a cell viability assay.

[39] = system: MFE-280; type: functional, cell-based; conditions: Homo sapiens;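 also: growth inhibition of MFE-280 cells, determined with a cell viability readout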
Description: SANGER: Inhibition of human MFE-280 cell growth in a cell viability assay.

[40] = system: SK-OV-3; type: functional, cell-based; conditions: Homo sapiens;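 also: growth inhibition of SK-OV-3 human cells, read out with a cell viability assay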
Description: SANGER: Inhibition of human SK-OV-3 cell growth in a cell viability assay.

[41] = system: KYSE-150 cell line; type: functional, cell-based; conditions: Homo sapiens;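 also: growth inhibition of human KYSE-150 cells, read out with a cell viability assay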
Description: SANGER: Inhibition of human KYSE-150 cell growth in a cell viability assay.

[42] = system: MDA-MB-231; type: functional, cell-based; conditions: Homo sapiens
Description: SANGER: Inhibition of human MDA-MB-231 cell growth in a cell viability assay.

[43] = system: HCC1937; type: functional, cell-based; conditions: Homo sapiens;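 also: growth inhibition measured with a cell viability read-out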
Description: SANGER: Inhibition of human HCC1937 cell growth in a cell viability assay.

[44] = system: COLO-792; type: functional, cell-based; conditions: Homo sapiens
Description: SANGER: Inhibition of human COLO-792 cell growth in a cell viability assay.

[45] = system: COR-L105; type: functional, cell-based; conditions: Homo sapiens;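 also: cell growth inhibition determined with a viability assay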
Description: SANGER: Inhibition of human COR-L105 cell growth in a cell viability assay.

[46] = system: SNU-449; type: functional, cell-based; conditions: Homo sapiens
Description: SANGER: Inhibition of human SNU-449 cell growth in a cell viability assay.

[47] = system: MDA-MB-415; type: functional, cell-based; conditions: Homo sapiens
[48] = system: CAL-12T; type: functional, cell-based, Homo sapiens; conditions: Homo sapiens, CAL-12T;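 also: growth inhibition of human CAL-12T cells, read out with a cell viability assay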
Description: SANGER: Inhibition of human CAL-12T cell growth in a cell viability assay.

[49] = system: D-542MG; type: functional, cell-based; conditions: Homo sapiens
Description: SANGER: Inhibition of human D-542MG cell growth in a cell viability assay.

SMILES: CC[C@@]1(O)C(=O)OCc2c1cc1n(c2=O)Cc2cc3ccccc3nc2-1 [CAMPTOTHECIN]
- IC50 [1]: 0.0315 µM
- IC50 [2]: 0.00222 µM
- IC50 [3]: 0.0869 µM
- IC50 [4]: 0.0195 µM
- IC50 [5]: 0.00369 µM
- IC50 [6]: > 0.1 µM
- IC50 [7]: 0.0253 µM
- IC50 [8]: 0.000838 µM
- IC50 [9]: 0.0328 µM
- IC50 [10]: 0.0341 µM
- IC50 [11]: > 0.1 µM
- IC50 [12]: > 0.1 µM
- IC50 [13]: 0.00708 µM
- IC50 [14]: 0.0379 µM
- IC50 [15]: 0.0769 µM
- IC50 [16]: 0.00421 µM
- IC50 [17]: 0.0433 µM
- IC50 [18]: 0.0473 µM
- IC50 [19]: 0.049 µM
- IC50 [20]: > 0.1 µM
- IC50 [21]: 0.00014 µM
- IC50 [22]: 0.00502 µM
- IC50 [23]: 0.0157 µM
- IC50 [24]: 0.000896 µM
- IC50 [25]: 0.0355 µM
- IC50 [26]: 0.0014 µM
- IC50 [27]: 0.0014 µM
- IC50 [28]: 0.0229 µM
- IC50 [29]: 0.00731 µM
- IC50 [30]: 0.00202 µM
- IC50 [31]: 0.00531 µM
- IC50 [32]: 0.0033 µM
- IC50 [33]: 0.0137 µM
- IC50 [34]: 0.00725 µM
- IC50 [35]: 0.0485 µM
- IC50 [36]: 0.00476 µM
- IC50 [37]: 0.0128 µM
- IC50 [38]: 0.044 µM
- IC50 [39]: 0.0216 µM
- IC50 [40]: > 0.1 µM

SMILES: NC(=O)c1ncn([C@@H]2O[C@H](COP(=O)(O)O)[C@@H](O)[C@H]2O)c1N
- IC50 [1]: 252 µM
- IC50 [41]: 1010 µM
- IC50 [3]: > 2000 µM
- IC50 [4]: > 2000 µM
- IC50 [5]: > 2000 µM
- IC50 [6]: 495 µM
- IC50 [7]: > 2000 µM
- IC50 [42]: > 2000 µM
- IC50 [8]: 793 µM
- IC50 [9]: 1920 µM
- IC50 [10]: 766 µM
- IC50 [11]: > 2000 µM
- IC50 [12]: > 2000 µM
- IC50 [13]: > 2000 µM
- IC50 [43]: > 2000 µM
- IC50 [14]: 1120 µM
- IC50 [15]: > 2000 µM
- IC50 [16]: > 2000 µM
- IC50 [17]: > 2000 µM
- IC50 [44]: > 2000 µM
- IC50 [18]: > 2000 µM
- IC50 [19]: 1950 µM
- IC50 [20]: > 2000 µM
- IC50 [21]: > 2000 µM
- IC50 [22]: 1080 µM
- IC50 [45]: > 2000 µM
- IC50 [23]: > 2000 µM
- IC50 [24]: > 2000 µM
- IC50 [25]: > 2000 µM
- IC50 [26]: > 2000 µM
- IC50 [46]: > 2000 µM
- IC50 [27]: 252 µM
- IC50 [29]: 663 µM
- IC50 [30]: > 2000 µM
- IC50 [31]: 405 µM
- IC50 [32]: > 2000 µM
- IC50 [47]: 655 µM
- IC50 [33]: > 2000 µM
- IC50 [34]: 920 µM
- IC50 [48]: 668 µM
- IC50 [35]: 1510 µM
- IC50 [36]: > 2000 µM
- IC50 [37]: > 2000 µM
- IC50 [38]: > 2000 µM
- IC50 [39]: > 2000 µM
- IC50 [40]: > 2000 µM

SMILES: C[C@]1(c2nc3c(C(N)=O)cccc3[nH]2)CCCN1 [VELIPARIB]
- IC50 [1]: > 5 µM
- IC50 [41]: > 5 µM
- IC50 [2]: > 5 µM
- IC50 [3]: > 5 µM
- IC50 [4]: > 5 µM
- IC50 [5]: > 5 µM
- IC50 [6]: > 5 µM
- IC50 [7]: > 5 µM
- IC50 [42]: > 5 µM
- IC50 [8]: > 5 µM
- IC50 [9]: > 5 µM
- IC50 [10]: > 5 µM
- IC50 [11]: > 5 µM
- IC50 [12]: > 5 µM
- IC50 [13]: > 5 µM
- IC50 [43]: > 5 µM
- IC50 [49]: > 5 µM
- IC50 [14]: > 5 µM
- IC50 [15]: > 5 µM
- IC50 [16]: > 5 µM
- IC50 [17]: > 5 µM
- IC50 [44]: > 5 µM
- IC50 [18]: > 5 µM
- IC50 [19]: > 5 µM
- IC50 [20]: > 5 µM
- IC50 [21]: > 5 µM
- IC50 [22]: > 5 µM
- IC50 [45]: > 5 µM
- IC50 [23]: > 5 µM
- IC50 [24]: > 5 µM
- IC50 [25]: > 5 µM
- IC50 [26]: > 5 µM
- IC50 [46]: > 5 µM
- IC50 [27]: > 5 µM
- IC50 [28]: > 5 µM
- IC50 [29]: > 5 µM
- IC50 [30]: > 5 µM
- IC50 [31]: > 5 µM
- IC50 [32]: > 5 µM
- IC50 [47]: > 5 µM
- IC50 [33]: > 5 µM
- IC50 [34]: > 5 µM
- IC50 [48]: > 5 µM
- IC50 [35]: > 5 µM
- IC50 [36]: > 5 µM
- IC50 [37]: > 5 µM
- IC50 [38]: > 5 µM
- IC50 [39]: > 5 µM
- IC50 [40]: > 5 µM
